Laboratory results reported in the NIST ThermoML archive (doi:10.1021/je300240k).
Values joined by “and” are separate entries in the source; they are usually repeats but may differ in a detail not shown here. Identical values can stand only once.

Settings: Liquid, Ebulliometric method (Recirculating still)

F/C=C/C(F)(F)F [trans-1,3,3,3-tetrafluoropropene]
Settings	vapor or sublimation pressure
223.1 K	21 kPa
228.08 K	28 kPa
232.99 K	36 kPa
238.04 K	47 kPa
243.02 K	61 kPa
248.04 K	77 kPa
253.02 K	96 kPa
257.14 K	115 kPa
258.04 K	119 kPa
259.15 K	125 kPa
261.15 K	136 kPa
263.1 K	147 kPa
263.15 K	147 kPa
265.15 K	160 kPa
267.15 K	173 kPa
268.01 K	178 kPa
269.15 K	186 kPa
271.15 K	201 kPa
273.06 K	216 kPa
273.15 K	216 kPa
275.15 K	233 kPa
277.15 K	250 kPa
278.01 K	258 kPa
279.15 K	269 kPa
281.15 K	288 kPa
282.93 K	306 kPa
283.15 K	308 kPa
285.15 K	330 kPa
287.15 K	352 kPa
287.89 K	361 kPa
289.15 K	376 kPa
291.15 K	401 kPa
292.85 K	423 kPa
293.15 K	427 kPa
295.15 K	455 kPa
297.15 K	484 kPa
297.69 K	492 kPa
297.87 K	495 kPa
298.77 K	508 kPa
299.15 K	514 kPa
301.15 K	546 kPa
303.15 K	579 kPa
303.68 K	588 kPa
305.15 K	614 kPa and 613 kPa
307.15 K	649 kPa
308.82 K	681 kPa
309.15 K	687 kPa
311.15 K	726 kPa
312.85 K	761 kPa
313.15 K	767 kPa
315.15 K	810 kPa
317.15 K	854 kPa
317.75 K	868 kPa
319.15 K	900 kPa
321.15 K	948 kPa
323.1 K	997 kPa
323.15 K	998 kPa
325.15 K	1050 kPa
327.15 K	1104 kPa
328.12 K	1130 kPa
329.15 K	1160 kPa
331.15 K	1218 kPa
333.11 K	1276 kPa
333.15 K	1278 kPa
335.15 K	1340 kPa
337.15 K	1405 kPa
338.11 K	1436 kPa
339.15 K	1472 kPa
341.15 K	1541 kPa
343.1 K	1610 kPa
343.15 K	1613 kPa
348.09 K	1799 kPa
353.08 K	2005 kPa
